Values of other authors as cited in patent publication US20200113899A1, “STATIN COMPOSITIONS AND METHODS FOR USE IN TREATING SYNUCLEINOPATHIES” (CHASE THERAPEUTICS CORPORATION, priority 2017, published 2020).

Experiments:
alpha-synuclein [1] = conditions: transgenic mouse models
[2] = 535 PD patients
[3] = pramipexole 5 mg/day
alpha-synuclein [4] = conditions: Parkinson patients, therapeutic doses, compared with pre-treatment values; magnitude of the effect small

CC[C@H](C)C(=O)O[C@H]1C[C@@H](C)C=C2C=C[C@H](C)[C@H](CC[C@@H]3C[C@@H](O)CC(=O)O3)[C@H]21 [lovastatin, (1S,3R,7S,8S,8aR)-8-{2-[(2R,4R)-4-Hydroxy-6-oxooxan-2-yl]ethyl}-3,7-dimethyl-1,2,3,7,8,8a-hexahydronaphthalen-1-yl (2S)-2-methylbutanoate]
alpha-synuclein accumulation and oxidation (alpha-synuclein [1]): ameliorated

CCCN[C@H]1CCc2nc(N)sc2C1 [pramipexole, (S)-6-propylamino-4,5,6,7-tetrahydro-1,3-benzothiazole-2-amine]
neuroprotective (disease modifying) activity [2]: failed to evidence neuroprotective (i.e., disease modifying) activity
patients with nausea [3]: 76%
patients with vomiting [3]: 39%
patients not able to complete the study ([3]; presumably because of intolerable GI adverse events): 36%
relative expression of alpha-synuclein (alpha-synuclein [4]): significantly lowered

CC(C)c1nc(N(C)S(C)(=O)=O)nc(-c2ccc(F)cc2)c1/C=C/[C@@H](O)C[C@@H](O)CC(=O)O [rosuvastatin, (3R,5S,6E)-7-[4-(4-Fluorophenyl)-2-(N-methylmethanesulfonamido)-6-(propan-2-yl)pyrimidin-5-yl]-3,5-dihydroxyhept-6-enoic acid]
effect against rotenone-induced neurotoxicity (SH-SY5Y cells): neuroprotective effect
α-synuclein expression (SH-SY5Y cells): modulation
